Measured values from patent publication US8268990B2, “Compounds” (AstraZeneca AB, priority 2007, dated 2012).

target: T1, Recombinant human TLR7 (Homo sapiens, UniProt Q9NYK1); experiment: Human TLR7 Assay (SEAP reporter); assay type: cell-based; conditions: HEK293 cell line stably expressing human TLR7 and pNiFty2-SEAP reporter; SEAP induction after overnight incubation at 37° C., 0.1% (v/v) DMSO;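 further: SEAP driven by an NFkB-responsive composite promoter, pEC50 read at half of each compound's own maximal SEAP induction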
T1 construct: expressed in transfected cells; host or cells: HEK293 cell line stably expressing the pNiFty2-SEAP reporter plasmid; TLR7 in vector pUNO, blasticidin selection
T1 sequence (Q9NYK1 27-1049): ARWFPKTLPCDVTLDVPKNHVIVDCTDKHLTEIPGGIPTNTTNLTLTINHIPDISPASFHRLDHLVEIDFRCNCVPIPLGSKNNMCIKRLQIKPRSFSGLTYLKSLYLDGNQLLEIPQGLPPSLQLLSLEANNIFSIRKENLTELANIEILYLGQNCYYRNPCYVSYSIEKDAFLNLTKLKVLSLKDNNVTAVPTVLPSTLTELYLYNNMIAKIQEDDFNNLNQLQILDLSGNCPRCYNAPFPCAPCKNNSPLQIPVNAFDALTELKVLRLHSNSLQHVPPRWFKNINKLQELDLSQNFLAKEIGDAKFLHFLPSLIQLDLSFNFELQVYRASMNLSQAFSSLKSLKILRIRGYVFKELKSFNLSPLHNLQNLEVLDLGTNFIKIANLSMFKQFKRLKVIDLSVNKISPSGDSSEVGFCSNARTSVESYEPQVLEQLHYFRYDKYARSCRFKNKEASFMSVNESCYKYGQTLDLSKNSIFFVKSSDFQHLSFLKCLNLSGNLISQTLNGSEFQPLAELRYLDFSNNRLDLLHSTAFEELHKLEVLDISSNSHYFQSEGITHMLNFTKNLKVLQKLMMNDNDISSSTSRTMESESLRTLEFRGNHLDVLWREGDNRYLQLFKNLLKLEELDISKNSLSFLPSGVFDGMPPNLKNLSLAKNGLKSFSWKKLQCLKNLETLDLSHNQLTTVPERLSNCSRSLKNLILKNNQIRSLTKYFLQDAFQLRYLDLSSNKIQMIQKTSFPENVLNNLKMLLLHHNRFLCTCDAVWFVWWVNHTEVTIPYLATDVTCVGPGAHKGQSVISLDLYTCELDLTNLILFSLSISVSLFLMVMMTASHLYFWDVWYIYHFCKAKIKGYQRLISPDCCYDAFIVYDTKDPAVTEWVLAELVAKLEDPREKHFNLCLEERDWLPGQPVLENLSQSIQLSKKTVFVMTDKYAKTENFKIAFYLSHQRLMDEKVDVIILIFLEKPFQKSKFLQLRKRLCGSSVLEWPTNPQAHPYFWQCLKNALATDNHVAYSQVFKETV
Description: Recombinant human TLR7 was stably expressed in a HEK293 cell line already stably expressing the pNiFty2-SEAP reporter plasmid; integration of the reporter gene was maintained by selection with the antibiotic zeocin. The most common variant sequence of human TLR7 (represented by the EMBL sequence AF240467) was cloned into the mammalian cell expression vector pUNO and transfected into this reporter cell-line. Transfectants with stable expression were selected using the antibiotic blasticidin. In this reporter cell-line, expression of secreted alkaline phosphatase (SEAP) is controlled by an NFkB/ELAM-1 composite promoter comprising five NFkB sites combined with the proximal ELAM-1 promoter. TLR signaling leads to the translocation of NFkB and activation of the promoter results in expression of the SEAP gene. TLR7-specific activation was assessed by determining the level of SEAP produced following overnight incubation of the cells at 37° C. with the standard compound in the presence of 0.1% (v/v) dimethylsulfoxide (DMSO). Concentration dependent induction of SEAP production by compounds was expressed as the concentration of compound which produced half of the maximal level of SEAP induction for that compound (pEC50).

Structure (SMILES)	EC50 [nM]
CCCCCNc1nc(N)nc(C)c1CCCN(Cc1cccc(CC(=O)OC)c1)C(=O)CN1CCC(O)CC1 [Example 7, Methyl 2-(3-((N-(3-(2-amino-4-methyl-6-(pentylamino)pyrimidin-5-yl)propyl)-2-(4-hydroxypiperidin-1-yl)acetamido)methyl)phenyl)acetate]	2510
CCCCNc1nc(N)nc(C)c1Cc1ccc(CC(=O)OCCc2scnc2C)cc1OC [Example 101, 2-(4-Methylthiazol-5-yl)ethyl 2-(4-((2-amino-4-(butylamino)-6-methylpyrimidin-5-yl)methyl)-3-methoxyphenyl)acetate]	39.8
CCCCNc1nc(N)nc(C)c1Cc1cc(CC(=O)OCCCCN(C)C)ccc1OC [Example 97, 4-(Dimethylamino)butyl 2-(3-((2-amino-4-(butylamino)-6-methylpyrimidin-5-yl)methyl)-4-methoxyphenyl)acetate]	31.6
CCCCCNc1nc(N)nc(C)c1CCCN(Cc1cccc(CC(=O)OC)c1)S(=O)(=O)c1cn(C)cn1 [Example 14, Methyl 2-(3-((N-(3-(2-amino-4-methyl-6-(pentylamino)pyrimidin-5-yl)propyl)-1-methyl-1H-imidazole-4-sulfonamido)methyl)phenyl)acetate]	1260
CCCCNc1nc(N)nc(C)c1Cc1ccc(CC(=O)OCCO)cc1OC [Example 89, 2-Hydroxyethyl 2-(4-((2-amino-4-(butylamino)-6-methylpyrimidin-5-yl)methyl)-3-methoxyphenyl)acetate]	50.1
CCCCCNc1nc(N)nc(C)c1Cc1ccc(CC(=O)OC2CCN(C)CC2)cc1 [Example 59, 1-Methylpiperidin-4-yl 2-(4-((2-amino-4-methyl-6-(pentylamino)pyrimidin-5-yl)methyl)phenyl)acetate]	126
CCCC[C@@H](CCO)Nc1nc(N)nc(C)c1Cc1ccc(CC(=O)OC)cc1 [Example 50, (S)-Methyl 2-(4-((2-amino-4-(1-hydroxyheptan-3-ylamino)-6-methylpyrimidin-5-yl)methyl)phenyl)acetate]	158
CCCCCNc1nc(N)nc(C)c1Cc1cccc(CC(=O)OCCCCN2CCCC2)c1 [Example 84, 4-(Pyrrolidin-1-yl)butyl 2-(3-((2-amino-4-methyl-6-(pentylamino)pyrimidin-5-yl)methyl)phenyl)acetate]	316
CCCCNc1nc(N)nc(C)c1Cc1ccc(CC(=O)OCCCCN2CCCC2)cc1OC [Example 73, 4-(Pyrrolidin-1-yl)butyl 2-(4-((2-amino-4-(butylamino)-6-methylpyrimidin-5-yl)methyl)-3-methoxyphenyl)acetate]	5.01
CCC[C@@H](CO)Nc1nc(N)nc(C)c1Cc1ccc(CC(=O)OCC2CCN(C)CC2)cc1OC [Example 71, (S)-(1-Methylpiperidin-4-yl)methyl 2-(4-((2-amino-4-(1-hydroxypentan-2-ylamino)-6-methylpyrimidin-5-yl)methyl)-3-methoxyphenyl)acetate]	20
CC[C@H](O)CNc1nc(N)nc(C)c1Cc1ccc(CC(=O)OC)cc1OC [Example 53, (S)-Methyl 2-(4-((2-amino-4-(2-hydroxybutylamino)-6-methylpyrimidin-5-yl)methyl)-3-methoxyphenyl)acetate]	39.8
CCC[C@@H](CO)Nc1nc(N)nc(C)c1Cc1ccc(CC(=O)OCC2CCN(C)CC2)cc1O [Example 76, (S)-(1-Methylpiperidin-4-yl)methyl 2-(4-((2-amino-4-(1-hydroxypentan-2-ylamino)-6-methylpyrimidin-5-yl)methyl)-3-hydroxyphenyl)acetate]	631
CCCCCNc1nc(N)nc(C)c1Cc1ccc(CC(=O)OCCCCN2CCS(=O)(=O)CC2)cc1 [Example 64, 4-(1,1-Dioxidothiomorpholin-4-yl)butyl(4-{[2-amino-4-methyl-6-(pentylamino)pyrimidin-5-yl]methyl}phenyl)acetate]	2510
CCCCCNc1nc(N)nc(C)c1Cc1cccc(CC(=O)OCC2CCN(C)CC2)c1 [Example 85, (1-Methylpiperidin-4-yl)methyl 2-(3-((2-amino-4-methyl-6-(pentylamino)pyrimidin-5-yl)methyl)phenyl)acetate]	501
CCCCCNc1nc(N)nc(C)c1CCCN(Cc1ccc(CC(=O)OC)cc1)C(=O)CN(C)C [Example 4, Methyl 2-(4-((N-(3-(2-amino-4-methyl-6-(pentylamino)pyrimidin-5-yl)propyl)-2-(dimethylamino)acetamido)methyl)phenyl)acetate]	398
CCC[C@@H](CCO)Nc1nc(N)nc(C)c1Cc1ccc(CC(=O)OCCCCN2CCCC2)cc1O [Example 78, (S)-4-(Pyrrolidin-1-yl)butyl 2-(4-((2-amino-4-(1-hydroxyhexan-3-ylamino)-6-methylpyrimidin-5-yl)methyl)-3-hydroxyphenyl)acetate]	50.1

Continued, values first:

EC50 [nM]	Structure (SMILES)
31.6	CCC[C@@H](CCO)Nc1nc(N)nc(C)c1Cc1ccc(CC(=O)OCCC2CCN(C)CC2)cc1F [Example 100, (S)-2-(1-Methylpiperidin-4-yl)ethyl 2-(4-((2-amino-4-(1-hydroxyhexan-3-ylamino)-6-methylpyrimidin-5-yl)methyl)-3-fluorophenyl)acetate]
200	CCCCCNc1nc(N)nc(C)c1Cc1ccc(CC(=O)OCC2CCN(CCOC)CC2)cc1 [Example 62, (1-(2-Methoxyethyl)piperidin-4-yl)methyl 2-(4-((2-amino-4-methyl-6-(pentylamino)pyrimidin-5-yl)methyl)phenyl)acetate]
100	CCCCNc1nc(N)nc(C)c1Cc1ccc(CC(=O)OCCCCN2CCCC2)cc1 [Example 82, 4-(Pyrrolidin-1-yl)butyl 2-(4-((2-amino-4-(butylamino)-6-methylpyrimidin-5-yl)methyl)phenyl)acetate]
6.31	CCCC[C@@H](CCO)Nc1nc(N)nc(C)c1Cc1ccc(CC(=O)OC)cc1OC [Example 31, (S)-Methyl 2-(4-((2-amino-4-(1-hydroxyheptan-3-ylamino)-6-methylpyrimidin-5-yl)methyl)-3-methoxyphenyl)acetate]
1000	CC[C@H](O)CNc1nc(N)nc(C)c1Cc1ccc(CC(=O)OCC2CCN(C)CC2)cc1 [Example 81, (S)-(1-Methylpiperidin-4-yl)methyl 2-(4-((2-amino-4-(2-hydroxybutylamino)-6-methylpyrimidin-5-yl)methyl)phenyl)acetate]
39.8	CCC[C@@H](CCO)Nc1nc(N)nc(C)c1Cc1ccc(CC(=O)OCC2CCN(C)CC2)cc1F [Example 74, (S)-(1-Methylpiperidin-4-yl)methyl 2-(4-((2-amino-4-(1-hydroxyhexan-3-ylamino)-6-methylpyrimidin-5-yl)methyl)-3-fluorophenyl)acetate]
631	CCCCCNc1nc(N)nc(C)c1Cc1ccc(CC(=O)OC)cc1F [Example 22, Methyl 2-(4-((2-amino-4-methyl-6-(pentylamino)pyrimidin-5-yl)methyl)-3-fluorophenyl)acetate]
79.4	CCCCNc1nc(N)nc(C)c1Cc1cc(CC(=O)OC)ccc1O [Example 99, Methyl 2-(3-((2-amino-4-(butylamino)-6-methylpyrimidin-5-yl)methyl)-4-hydroxyphenyl)acetate]
794	CCCCCNc1nc(N)nc(C)c1CCCN(Cc1ccc(CC(=O)OC)cc1)C(=O)CN1CCCCC1 [Example 29, Methyl 2-(4-((N-(3-(2-amino-4-methyl-6-(pentylamino)pyrimidin-5-yl)propyl)-2-(piperidin-1-yl)acetamido)methyl)phenyl)acetate]
50.1	CCCCNc1nc(N)nc(C)c1Cc1cc(CC(=O)OC)ccc1OC [Example 98, Methyl 2-(3-((2-amino-4-(butylamino)-6-methylpyrimidin-5-yl)methyl)-4-methoxyphenyl)acetate]
100	CCC[C@@H](CO)Nc1nc(N)nc(C)c1Cc1ccc(CC(=O)OC)cc1O [Example 88, (S)-Methyl 2-(4-((2-amino-4-(1-hydroxypentan-2-ylamino)-6-methylpyrimidin-5-yl)methyl)-3-hydroxyphenyl)acetate]
126	CCCCCNc1nc(N)nc(C)c1Cc1ccc(CC(=O)OCCCN2CCOCC2)cc1 [Example 58, 3-Morpholinopropyl 2-(4-((2-amino-4-methyl-6-(pentylamino)pyrimidin-5-yl)methyl)phenyl)acetate]
158	CCCCCNc1nc(N)nc(C)c1Cc1ccc(CC(=O)OCCCCN2CCN(C)CC2)cc1 [Example 63, 4-(4-Methylpiperazin-1-yl)butyl 2-(4-((2-amino-4-methyl-6-(pentylamino)pyrimidin-5-yl)methyl)phenyl)acetate]
